Measurements taken from patent publication US20110172163A1, “Novel Protease Inhibitors” (QUEENSLAND UNIVERSITY OF TECHNOLOGY, priority 2008, published 2011).
“And” between values parts separate entries of the source, which are not always exact repeats. Equal values may be shown once. Read-outs that look alike come from different tables or passages of the source. Bridge positions count the residues as written; N and C are the ends. Peptide text beside a SMILES is read from it.

Experiments:
KLK4 [1] = molecular target: T1, KLK4 (Homo sapiens, UniProt Q9Y5K2); assay: Inhibitor kinetics: KLK4 amidolytic activity with peptide-pNA substrates; format: biochemical; design: pro-region of PSA (KLK3), replacing the native KLK4 pro-region (N, cleaved yes); made in house
Method: (§1) Human recombinant KLK4 was expressed in E. coli using a previously described chimeric KLK4 plasmid construct where the native pro-region was replaced with the pro-region of PSA, enabling autoactivation. Protein was expressed as inclusion bodies which were isolated and solubilised as described previously to yield 90% pure KLK4. Protein refolding was performed by dilution into 100 volumes of refolding buffer I (2 M urea, 0.1M NaCl, 5 mM GSH, 0.5 mM GSSG, 10 mM benzamidine, 50 mM tris HCl pH 8.0, 2 mM CaCl2) over 44 hours before further dilution into 3 volumes refolding buffer II (refolding buffer I with 0.5 M urea 0.5 mM GSH, 0.05 mM GSSG, 2 mM CaCl2) over another 24 hours. Dialysis was performed as previously described (with additional 2 mM CaCl2 to reduce aggregation) before concentration using UNO sphere Q (Biorad) eluting with tris buffered saline (pH 7.5)/2 mM CaCl2. Subsequently, the material was purified to apparent homogeneity (according to coomassie blue stained SDS PAGE) by gel filtration using Sephacryl S-200 (GE Health Care) pre-equilibrated with 50 mM Tris-HCl pH 7.5, 20 mM NaCl and 2 mM CaCl2.
All enzymes and substrates were obtained from Sigma Chemicals if not otherwise specified. Bacterially expressed human KLK4 (37 ng), bovine β-trypsin (20 ng), bovine thrombin (20 ng), bovine α-chymotrypsin (0.5 μg), protease (0.5 μg; Streptomyces griseus type XIV), bovine plasminogen (0.5 μg), and human matriptase (30 ng; R&D Systems) were incubated with various concentrations of inhibitors in 200 μL assay buffer for 10 minutes prior to initiation by the addition of 100 μL of 0.3 mM of peptide-pNA substrates (FVQR-pNA: KLK4; BAPNA: trypsin, (Streptomyces griseus Type XIV Protease and bovine plasma plasminogen); Bz-Phe-Val-Arg-pNA: thrombin and matriptase; Trp-pNA: α-chymotrypsin; Leu-pNA: (Streptomyces griseus Type XIV Protease and bovine plasma plasminogen). The release of pNa moiety was monitored as described above for 7 minutes with each point being the average of three independent triplicate reactions. IC50 was determined using the Prism 5 software suite (GraphPad software Inc.).

bovine thrombin = molecular target: T2, bovine thrombin (Bos taurus, UniProt P00735); assay: Inhibitor kinetics: thrombin amidolytic activity; format: biochemical; settings: substrate Bz-FVR-pNA (0.2 mM); read-out: IC50
T2 construct: purchased Sigma Chemicals
Method: (§2) All enzymes and substrates were obtained from Sigma Chemicals if not otherwise specified. […] The release of pNa moiety was monitored as described above for 7 minutes with each point being the average of three independent triplicate reactions. IC50 was determined using the Prism 5 software suite (GraphPad software Inc.).

[2] = Stability of SFTI variants in contact with prostate cancer cells in vitro; format: in vitro ADME; settings: prostate cancer cell lines in serum containing medium
Method: Cell monolayers of LNCaP, 22Rv1 and PC3 cells were established in RPMI 1640 medium containing 10% fetal calf serum. Each cell line was treated +/−1 μM SFTI-FCQR contained in 4.0 mL RPMI media (as above) with a vehicle control to account for inhibition by intrinsic media factors. 25 μL samples of media were taken at 0, 24, 48, 72, 96 and 120 hrs timepoints. Media samples were boiled at 97° C. for 15 min, centrifuged at 14,000 rpm for 5 min to remove cellular debris and precipitated protein. Residual SFTI-FCQR inhibitory activity in the medium was determined against recombinant KLK4 using FVQR-pNA as a peptide substrate as above using 15ng KLK4 and 30 nmol FVQR-pNA with 2.5 μL and […] of media+/−SFTI-FCQR added from each treatment.

iKLK14 = molecular target: T3, iKLK14 (Homo sapiens, UniProt Q9P0G3); assay: Inhibitor kinetics: KLK14 amidolytic activity; format: biochemical
T3 construct: made in house

bovine β-trypsin = molecular target: T4, bovine β-trypsin (Bos taurus, UniProt P00760); assay: Inhibitor kinetics: trypsin amidolytic activity; format: biochemical; settings: substrate BAPNA (0.2 mM)
T4 construct: bovine β-trypsin (20 ng); purchased Sigma Chemicals
T4 sequence (P00760 24-246): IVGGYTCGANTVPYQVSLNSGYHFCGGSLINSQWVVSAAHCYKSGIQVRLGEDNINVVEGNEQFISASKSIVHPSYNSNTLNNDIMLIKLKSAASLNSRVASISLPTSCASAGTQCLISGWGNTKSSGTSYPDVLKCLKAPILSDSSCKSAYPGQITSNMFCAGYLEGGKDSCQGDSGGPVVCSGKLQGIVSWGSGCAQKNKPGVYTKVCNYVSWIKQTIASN
Method: as §2

human matriptase = molecular target: T5, human matriptase (Homo sapiens, UniProt Q9Y5Y6); assay: Inhibitor kinetics: matriptase amidolytic activity; format: biochemical; settings: substrate Bz-FVR-pNA (0.2 mM); read-out: IC50
T5 construct: purchased R&D Systems
T5 sequence (Q9Y5Y6 615-855 limits assumed): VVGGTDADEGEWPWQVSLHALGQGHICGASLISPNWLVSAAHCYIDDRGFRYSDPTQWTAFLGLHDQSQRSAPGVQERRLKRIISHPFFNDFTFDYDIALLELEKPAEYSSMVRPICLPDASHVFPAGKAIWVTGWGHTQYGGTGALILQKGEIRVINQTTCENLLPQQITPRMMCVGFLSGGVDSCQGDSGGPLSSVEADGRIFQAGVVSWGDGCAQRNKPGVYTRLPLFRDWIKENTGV
Method: as §2

[3] = test system: protease (Streptomyces griseus type XIV); assay: Inhibitor kinetics: Streptomyces griseus type XIV protease; format: biochemical; settings: substrate L-pNA
Method: as §2

Figure 3 (D) = assay: Figure 3 (D)
Method: Table printed on a drawing sheet, Figure 3 (D)
The patent's description of the figure: FIG. 3. Stability of SFTI variants in contact with prostate cancer cells in vitro. Residual SFTI-FCQR was assayed in tissue culture supernatants from prostate cancer cells treated with a single dose of inhibitor at time =0. Stability was assessed against LNCaP (closed circles), 22RV1 (open circles) and PC3 cells (triangles) for (A) SFTI-FCQR, (B) SFTI-FCQR Asn14 and (C) SFTI-FCQR Lys14 as summarized in (D). Data represented as mean±SEM from three independent experiments in triplicates.
First reader's note: Half-life of residual inhibitor activity in culture supernatants of prostate cancer cell lines, summarising panels (A)-(C).

KLK12 = KLK12 (Homo sapiens, UniProt Q9UKR0); assay: Protein proteolysis: fibrinogen digestion by KLK12; format: biochemical; settings: at a concentration of 10000 nM
bovine α-chymotrypsin = molecular target: T6, bovine α-chymotrypsin (Bos taurus, UniProt P00766); assay: Inhibitor kinetics: α-chymotrypsin amidolytic activity; format: biochemical; settings: substrate W-pNA (0.2 mM); read-out: IC50
T6 construct: purchased Sigma Chemicals
Method: as §2

KLK14 = KLK14 (Homo sapiens, UniProt Q9P0G3); assay: Protein proteolysis: fibrinogen digestion by KLK14; format: biochemical; settings: at a concentration of 10000 nM
Thrombin = settings: cited from earlier work
KLK4 [4] = molecular target: T1, KLK4; assay: Protein proteolysis: fibrinogen digestion by KLK4 (SDS-PAGE); format: biochemical; design: pro-region of PSA (KLK3), replacing the native KLK4 pro-region (only if the E. coli preparation was used) (N, cleaved yes); made in house; settings: inhibitor at 2 μM
Method: (§3) Fibrinogen was solubilised in assay buffer to a final concentration of 1 mg/ml and digested with KLK4 (+/−inhibitor) over a period of 90 minutes at 37° C. Typically assays consisted of 5 μM protein substrate and 2.5 nM KLK4 protein or 1 nM trypsin made up to a final volume of 8 μl with assay buffer. Proteolysis was initiated by addition of KLK4 and terminated by addition of SDS PAGE sample buffer and heat denaturation at 100° C. for 5 minutes. Hydrolysis products were resolved on 10% SDS PAGE gels and compared with incubations terminated immediately after initiation (time 0), and substrate proteins incubated in assay buffer for 90 minutes in the absence of KLK4 or 4-16 mins with trypsin.

trypsin = molecular target: T7, trypsin (Bos taurus, UniProt P00760); assay: Protein proteolysis: fibrinogen digestion by trypsin (SDS-PAGE); format: biochemical, bovine; settings: SDS-PAGE
T7 construct: purchased Sigma Chemicals
Method: as §3

[5] = substrate: CC(=O)N[C@@H](Cc1ccccc1)C(=O)N[C@H](C(=O)N[C@@H](CCCNC(=N)N)C(=O)Nc1ccc([N+](=O)[O-])cc1)C(C)C; assay: Kinetic studies of para-nitroanilide substrates with KLK4; format: biochemical, human; settings: other: para-Nitroanilide substrate
Method: as §1
(§4) Kinetic Studies Active site titration was carried out according to Beynon et al., replacing α1-proteinase inhibitor with soybean trypsin inhibitor. Enzymatic activity assays were performed with 4.9 nM KLK4 and substrate concentrations in the range of 0-600 μM in 300 μL of assay buffer with hydrolysis monitored over 5 minutes as described for the substrate screen. The data was fitted to the Michaelis-Menten equation by […] analysis using the Prism 5 software suite (GraphPad Software Inc.).

[6] = substrate: CC(C)[C@H](NC(=O)[C@H](Cc1ccccc1)NC(=O)c1ccccc1)C(=O)N[C@@H](CCCNC(=N)N)C(=O)Nc1ccc([N+](=O)[O-])cc1; assay: as above; format: biochemical, human; settings: other: para-Nitroanilide substrate
Method: as §1, §4

[7] = substrate: CSCC[C@H](NC(=O)[C@@H](NC(=O)[C@@H](N)Cc1ccccc1)C(C)C)C(=O)N[C@@H](CCCNC(=N)N)C(=O)Nc1ccc([N+](=O)[O-])cc1; assay: as above; format: biochemical, human; settings: other: para-Nitroanilide substrate
Method: as §1, §4

[8] = substrate FVQR-pNA (0.2 mM), read-out: IC50

T7 sequence (P00760 18-246 limits assumed): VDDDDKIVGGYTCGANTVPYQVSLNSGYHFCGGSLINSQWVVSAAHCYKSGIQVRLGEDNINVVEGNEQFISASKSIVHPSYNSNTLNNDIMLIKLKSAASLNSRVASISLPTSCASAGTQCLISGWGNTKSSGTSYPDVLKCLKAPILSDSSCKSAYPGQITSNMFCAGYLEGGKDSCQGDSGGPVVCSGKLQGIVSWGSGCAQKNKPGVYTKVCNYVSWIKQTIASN
T3 sequence (Q9P0G3 41-267): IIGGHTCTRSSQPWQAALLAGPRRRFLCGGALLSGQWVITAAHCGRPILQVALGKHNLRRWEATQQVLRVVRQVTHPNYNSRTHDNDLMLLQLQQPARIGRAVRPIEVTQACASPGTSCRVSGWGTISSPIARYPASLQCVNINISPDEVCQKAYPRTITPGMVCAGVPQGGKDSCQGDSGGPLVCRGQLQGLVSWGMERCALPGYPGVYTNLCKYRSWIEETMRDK
KLK14, sequence (Q9P0G3 35-267 limits assumed): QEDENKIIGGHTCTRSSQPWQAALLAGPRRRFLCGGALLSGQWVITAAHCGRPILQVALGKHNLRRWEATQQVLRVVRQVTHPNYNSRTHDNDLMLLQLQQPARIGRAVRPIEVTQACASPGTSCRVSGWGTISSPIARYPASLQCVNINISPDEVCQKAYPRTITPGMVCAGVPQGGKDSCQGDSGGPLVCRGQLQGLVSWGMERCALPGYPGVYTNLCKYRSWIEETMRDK
KLK12, sequence (Q9UKR0 18-248): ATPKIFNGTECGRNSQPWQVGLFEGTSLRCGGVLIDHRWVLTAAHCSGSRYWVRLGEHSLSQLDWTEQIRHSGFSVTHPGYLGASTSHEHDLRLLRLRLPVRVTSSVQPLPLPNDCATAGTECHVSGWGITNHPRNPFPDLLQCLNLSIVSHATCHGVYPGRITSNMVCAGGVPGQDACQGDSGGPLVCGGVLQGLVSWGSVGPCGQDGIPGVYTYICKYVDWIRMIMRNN

CC[C@H](C)[C@@H]1NC(=O)[C@H](C)NC(=O)[C@@H]2CCCN2C(=O)[C@H]([C@@H](C)CC)NC(=O)[C@H](CO)NC(=O)[C@H](CCCNC(=N)N)NC(=O)[C@H](CCC(N)=O)NC(=O)[C@@H]2CSSC[C@H](NC1=O)C(=O)N[C@@H](Cc1ccccc1)C(=O)N1CCC[C@H]1C(=O)N[C@@H](CC(=O)O)C(=O)NCC(=O)N[C@@H](Cc1ccccc1)C(=O)N2 [SFTI-FCQR Ala9] (cyclo(AICFPDGFCQRSIP); disulfide 3-9)
IC50 (KLK4 [1]; [8]): 1140 ± 76 nM

CC[C@H](C)[C@@H]1NC(=O)[C@@H]2CCCN2C(=O)[C@@H]2CCCN2C(=O)[C@H]([C@@H](C)CC)NC(=O)[C@H](CO)NC(=O)[C@H](CCCNC(=N)N)NC(=O)[C@H](CCC(N)=O)NC(=O)[C@@H]2CSSC[C@H](NC1=O)C(=O)N[C@@H](Cc1ccccc1)C(=O)N1CCC[C@H]1C(=O)N[C@@H](CC(N)=O)C(=O)NCC(=O)N[C@@H](Cc1ccccc1)C(=O)N2 [SFTI-FCQR Asn14] (cyclo(GFCQRSIPPICFPN); disulfide 3-11)
IC50 (KLK4 [1]): 0.063 ± 0.002 nM
IC50 (bovine thrombin): > 10000 nM
half life of inhibition (in words) [2]: in the order of days
IC50 (iKLK14): 251 ± 6.65 nM
IC50 (bovine β-trypsin; read-out: IC50): 2580 ± 508 nM
IC50 (human matriptase): > 10000 nM
IC50 [3]: > 10000 nM
Half-life (Figure 3 (D)): 70 h
inhibition of KLK12 digestion of fibrinogen (KLK12): did not inhibit
IC50 (bovine α-chymotrypsin): > 10000 nM
inhibition of KLK14 digestion of fibrinogen (KLK14): did not inhibit

CC[C@H](C)[C@@H]1NC(=O)[C@@H]2CCCN2C(=O)[C@@H]2CCCN2C(=O)[C@H]([C@@H](C)CC)NC(=O)[C@H](CO)NC(=O)[C@H](CCCNC(=N)N)NC(=O)[C@H](CCC(N)=O)NC(=O)[C@@H]2CSSC[C@H](NC1=O)C(=O)N[C@@H](Cc1ccccc1)C(=O)N1CCC[C@H]1C(=O)N[C@@H](CCCCN)C(=O)NCC(=O)N[C@@H](Cc1ccccc1)C(=O)N2 [SFTI-FCQR Lys14] (cyclo(GFCQRSIPPICFPK); disulfide 3-11)
IC50 against KLK4 compared with SFTI-FCQR Asn14 (KLK4 [1]; substrate FVQR-pNA): nearly three orders of magnitude higher
IC50 (KLK4 [1]; [8]): 98.9 ± 4.09 nM
IC50 (bovine thrombin): > 10000 nM
half life of inhibition (in words) [2]: curtailed half life
IC50 (bovine β-trypsin): Inhibitor degraded
IC50 (human matriptase): > 10000 nM
IC50 [3]: > 10000 nM
Half-life (Figure 3 (D)): 9 h and 10 h
IC50 (bovine α-chymotrypsin): > 10000 nM

Sunflower trypsin inhibitor [SFTI-1, reference compound]
Ki (Thrombin; substrate N-t-Boc-LRR-AMC, Long et al. 2001): 5050 nM
Ki (Thrombin; substrate Unknown, Luckett et al. 1999): 136 nM
inhibition of fibrinogen proteolysis by KLK4 (KLK4 [4]): no inhibition
concentration that completely inhibits trypsin digestion of fibrinogen (trypsin): 31.25 nM

B1: KLK4 (Homo sapiens) (protein)
chain: IINGEDCSPHSQPWQAALVMENELFCSGVLVHPQWVLSAAHCFQNSYTIGLGLHSLEADQEPGSQMVEASLSVRHPEYNRPLLANDLMLIKLDESVSESDTIRSISIASQCPTAGNSCLVSGWGLLANGRMPTVLQCVNVSVVSEEVCSKLYDPLYHPSMFCAGGGHDQKDSCNGDSGGPLICNGYLQGLVSFGKAPCGQVGVPGVYTNLCKFTEWIEKTVQAS
notes: pro-region of PSA (KLK3), replacing the native KLK4 pro-region (only if the E. coli preparation was used) (N, cleaved yes); made in house
Km [5]: 194.9 ± 41.4 µM
kcat [5]: 0.3 ± 0.032 s⁻¹
kcat/Km [5]: 1540 ± 240 M⁻¹ s⁻¹
Km [6]: 42.5 ± 5.9 µM
kcat [6]: 0.57 ± 0.031 s⁻¹
kcat/Km [6]: 13400 ± 1500 M⁻¹ s⁻¹
Km [7]: 74.7 ± 10.3 µM
